# Measured values taken from PMC4482483, “Cationic Cell-Penetrating Peptides Are Potent Furin Inhibitors” (PLoS ONE, 2015).
# Where two headings read alike, the source gives them in different places.
# Tests used:
# soluble human furin [1] = molecular target: T1, soluble human furin (Homo sapiens, UniProt P09958); conditions: cited from earlier work; for Ki: furin
# T1 construct: Soluble human furin was purified from the conditioned medium; made in house; host or cells: CHO DG44 cells (stably transfected, methotrexate-amplified); purified from conditioned medium
# T1 sequence (P09958 108-715 limits assumed): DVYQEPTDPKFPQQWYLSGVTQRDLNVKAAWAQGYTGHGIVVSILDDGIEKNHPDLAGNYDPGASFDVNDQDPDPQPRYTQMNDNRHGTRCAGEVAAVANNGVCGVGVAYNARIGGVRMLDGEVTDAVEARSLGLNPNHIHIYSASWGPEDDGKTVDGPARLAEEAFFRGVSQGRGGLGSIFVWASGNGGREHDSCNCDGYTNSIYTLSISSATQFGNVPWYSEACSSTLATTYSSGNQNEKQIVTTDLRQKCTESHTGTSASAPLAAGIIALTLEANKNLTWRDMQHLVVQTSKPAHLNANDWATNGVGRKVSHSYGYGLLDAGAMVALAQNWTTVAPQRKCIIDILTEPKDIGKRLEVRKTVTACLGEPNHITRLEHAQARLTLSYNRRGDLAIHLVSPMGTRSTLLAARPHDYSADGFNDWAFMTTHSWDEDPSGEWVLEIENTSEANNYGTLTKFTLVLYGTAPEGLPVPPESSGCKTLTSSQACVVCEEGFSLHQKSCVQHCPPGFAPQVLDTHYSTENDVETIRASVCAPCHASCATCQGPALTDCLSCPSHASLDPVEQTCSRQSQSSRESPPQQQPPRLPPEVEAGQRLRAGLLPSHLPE
# soluble human furin [2] = molecular target: T1, soluble human furin; assay: furin enzyme assay with fluorogenic substrate pERTKR-mca; format: biochemical; conditions: for furin inhibition: peptide at 100 μM, 100 μM pERTKR-mca, Fig 1
# Protocol: Soluble human furin was purified from the conditioned medium of stably-transfected, methotrexate-amplified CHO DG44 cells, as previously described. […] The HIV-1 TAT47-57 peptide was purchased from Creative Peptides (Shirley, NY). The Chariot reagent was purchased from Active Motif (Carlsbad, CA). […] The fourth peptide (W4-[R5]; N-acetyl-WWWW-[KRRRRR]) is N-terminally acetylated.
# The furin assay was performed in 96-well polypropylene microtiter plates in a final volume of 50 μl, containing 100 mM HEPES, pH 7.0, 5 mM CaCl2, 0.1% Brij 35, 0.1% NaN3, and 0.1 mg/ml BSA. The substrate p-Glu-Arg-Thr-Lys-Arg-4-methylcoumaryl-7-amide (pERTKR-mca; Peptide Institute, Lexington, KY) was used at a final concentration of 100 μM. Furin was used at a final concentration of 20 nM. Reaction mixtures were incubated at 37°C and fluorescence measurements (380 nm excitation, 460 nm emission) were taken under kinetic conditions every minute for 60 min in a SpectraMax M2 microplate reader. […] After a 30-min preincubation at room temperature, 100 μM of pERTKR-methylaminocoumarin (mca) was added, and residual enzyme activities were monitored by measuring mca fluorescence intensity. Data were analyzed using Prism 5 as described previously. Due to cost considerations, Ki determinations were not performed for the HIV TAT peptide or for the Chariot reagent.
# Soluble human furin, pre-incubated for 20 min at room temperature in the presence of (a) HIV-1 TAT (47–57) or (b) Chariot peptide, was tested at the specified concentrations. Furin activity was assessed by measuring the release of the fluorescent mca product from the fluorogenic substrate, pERTKR-mca.
# [3] = test system: intracellular convertase activity in CHO-GRAPfurin cells; assay: SEAP activity assay (GRAPfurin Golgi reporter); format: cell-based; conditions: 1 μM, 20–24 h at 37 °C
# Protocol: CHO-GRAPfurin cells expressing the hybrid reporter protein GRAPfurin, consisting of the secreted alkaline phosphatase (SEAP) protein fused to a Golgi retention signal and a specific furin recognition/cleavage site, […] The medium was collected, centrifuged, and heated for 30 min at 65°C to inactivate non-relevant phosphatases. To test SEAP activity, 2.5 μl of heated medium was mixed with 100 μl of assay buffer (100 mM Tris-HCl, pH 10, 100 mM NaCl, 5 mM MgCl2) and 100 μl of 36 μM 4-methylumbelliferyl phosphate (MUP), a phosphatase substrate, made in 50 mM Tris-HCl, pH 10. Fluorescence was measured every 20 seconds after excitation at 365 nm and recording emission at 460 nm at 37°C for 1 h. Since SEAP released from the tethered furin reporter is secreted, SEAP levels in the medium are proportional to the activity of Golgi furin [24, 25]. The experiments were independently repeated three times using triplicate wells per condition.
# Fig 4 Cyclic polyarginine peptides inhibit cellular convertase activity. (a) CHO cells were incubated with each compound at 1 μM for 24 h at 37°C, and cell viability was monitored by incubation for 4 h with WST-1. […] Secreted alkaline phosphatase activity was measured in the medium. […]
# [4] = test system: HT1080 fibrosarcoma cells; assay: Oris cell migration assay; format: cell-based; conditions: 10 μM peptide
# Protocol: HT1080 fibrosarcoma cells (ATCC# CCL-121) were cultured to 80% confluence in growth medium (MEM (Earle’s salts + L-glutamine) 10% FBS, 1:100 non-essential amino acids (NEAA), 1 mM sodium pyruvate, 500 U/ml penicillin-streptomycin, and 1% gentamycin; Life Technologies). Cells were plated in an Oris Cell Migration Assay (Platypus Technologies) 96-well plate at 10^5 cells per well, following the manufacturer’s protocol. The next day, the growth medium was removed, the wells rinsed with PBS, and the cells were incubated in assay medium MEM (Earle’s salts + L-glutamine) containing 10% heat-inactivated FBS, 1:100 NEAA, 1 mM sodium pyruvate, 500U/ml penicillin-streptomycin, and 1% gentamycin in the presence or absence of inhibitors for 24 h at 37°C and 5% CO2. After incubation cells were rinsed with PBS (calcium and 20 mM HEPES, pH 7.4, as per the manufacturer’s protocol), and incubated with the Live / Dead Cell Stain Kit containing 2 μM calcein AM and 4 μM ethidium homodimer (EthD-1) for 30 min at 37°C and 5% CO2. Fluorescence was then measured at 485/528 nm excitation/emission for calcein AM, and 530/645 nm for EthD-1. […]
# Fig 2 Effect of HIV-1 TAT47-57 peptide on cell migration of fibrosarcoma HT1080 cells. Cells were incubated with either 10 μM of peptide or vehicle (water) for 24 h at 37°C and cell migration was measured as described in “Materials and Methods”. […]
Compound,inhibition constants against furin and other convertases (soluble human furin [1]),Ki (soluble human furin [1]) [nM],Ki (soluble human furin [2]) [nM],furin inhibition (soluble human furin [2]),further results
hexa-D-arginine amide,nanomolar range,106 ± 10,–,–,–
Nona-D-arginine amide,nanomolar range,1.3 ± 2,–,–,–
"N=C(N)NCCC[C@@H]1NC(=O)[C@H](Cc2c[nH]c3ccccc23)NC(=O)[C@H](CS)NC(=O)[C@H](Cc2c[nH]c3ccccc23)NC(=O)[C@H](CCCNC(=N)N)NC(=O)[C@H](Cc2c[nH]c3ccccc23)NC(=O)[C@H](CCCNC(=N)N)NC(=O)[C@H](Cc2c[nH]c3ccccc23)NC(=O)[C@H](CCCNC(=N)N)NC(=O)[C@H](Cc2c[nH]c3ccccc23)NC1=O [[W5R4C], [WRWRWRWRWC]]",–,–,340 ± 20,–,–
"CC(=O)N[C@@H](Cc1c[nH]c2ccccc12)C(=O)N[C@@H](Cc1c[nH]c2ccccc12)C(=O)N[C@@H](Cc1c[nH]c2ccccc12)C(=O)N[C@@H](Cc1c[nH]c2ccccc12)C(=O)NCCCC[C@@H]1NC(=O)[C@H](CCCNC(=N)N)NC(=O)[C@H](CCCNC(=N)N)NC(=O)[C@H](CCCNC(=N)N)NC(=O)[C@H](CCCNC(=N)N)NC(=O)[C@H](CCCNC(=N)N)NC1=O [W4-[R5], N-acetyl-WWWW-[KRRRRR]]",–,–,100 ± 140,–,inhibition of intracellular convertase activity (SEAP release) [3]: most effective compound in cells
KETWWETWWTEWSQPKKKRKV [Chariot],–,–,–,~ 60%,–
"N=C(N)NCCC[C@H](NC(=O)[C@H](CCCNC(=N)N)NC(=O)[C@H](CCCNC(=N)N)NC(=O)[C@H](CCC(N)=O)NC(=O)[C@H](CCCNC(=N)N)NC(=O)[C@H](CCCNC(=N)N)NC(=O)[C@H](CCCCN)NC(=O)[C@H](CCCCN)NC(=O)[C@H](CCCNC(=N)N)NC(=O)CNC(=O)[C@@H](N)Cc1ccc(O)cc1)C(=O)O [HIV-1 TAT47-57, YGRKKRRQRRR]",–,–,–,nearly complete,toxicity to HT1080 cells [4]: non-toxic; inhibition at 10 µM (soluble human furin [2]; read-out: furin inhibition): ~60%
